The values that follow are results of earlier work, collected in patent US12377095B2, “Use of ligustrazine nitrone derivatives in treatment and prevention of diabetic complication diseases” (QINGDAO HAILAN PHARMACEUTICALS CO., LTD., priority 2019, dated 2025).

Where two headings read alike, the source gives them in different places.

Data set [1] relates to rats with diabetic nephropathy. To be noted: rats with diabetic nephropathy induced by streptozotocin; cited from earlier work.
Data set [2] deals with human renal proximal tubule cells. The following applies: cited from earlier work.
The subject of data set [3] is patients with diabetic nephropathy. The following applies: cited from earlier work.
Data set [4] deals with patients with type 2 diabetes with peripheral neuropathy. The following applies: cited from earlier work.
The conditions of data set [5]: rabbit, intraperitoneal injection of tetramethylpyrazine hydrochloride; cited from earlier work.
For data set [6], the system named is patients with diabetic retinopathy. To be noted: electronically controlled tetramethylpyrazine ion added to puerarin injection and Zishen Jianpi Huayu Recipe; control group 67.50%; cited from earlier work.
[7] abbreviates: combined application vs conventional treatment group.

In the case of `Cc1nc(C)c(C)nc1C` [tetramethylpyrazine, Tetramethylpyrazine], in data set [1], the blood glucose entry is reported as “down-regulate”, the renal function entry is reported as “significantly improve” and the urine protein exclusion entry is “down-regulate”. The “activity against sodium arsenite-induced damage” value in data set [2] is “protective activity”. For the same compound, in data set [3] (setting [7]), the “24 h total urine proteins” value is “reduce”, the “24 h urinary albumin excretion rate” value is “reduce”, the “24 h urine protein quantitation” value is reported as “reduce” and the “effect on reduction of blood urea nitrogen” value was “not significant”. In data set [3] (setting [7]), the “effect on reduction of diastolic blood pressure” value is given as “not significant” and the “effect on reduction of systolic blood pressure” value was “not significant”. The “adverse reaction during the use” value in data set [3] (tetramethylpyrazine injection, patients with diabetic nephropathy) is recorded as “no indication of serious adverse reaction”. For the same compound, in data set [4] (conventional dose injection 80 mg/d), the “total effective rate of treatment” value is listed as 82.93%. Besides, in data set [4] (injection 360-400 mg/d, intravenous drops, 12 d course), the “total effective rate of treatment” value was 95%. Also, the “entry into retinal tissue” value in data set [5] was “can enter the retinal tissue through the blood-retinal barrier”. Moreover, the total effective rate in data set [6] is 86.84%.
